Laboratory results: patent US7998978B2 (Pfizer Inc., priority 2006, dated 2011)

Each molecule was assayed against T1, JNK1α1 (Homo sapiens, UniProt P45983) (assay: Coupled spectrophotometric (PK/LDH) JNK1α1 assay: % inhibition and Ki determination). Conditions: @1 uM; read-out: % Inhibition JNK-1.
T1 construct: catalytic domain containing amino acids 1-364 and N-terminal hexahistidine tag; hexahistidine (His6) (N); made in house; host or cells: E. coli BL21 (DE3)
Assay type: biochemical
Summary of the method: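 Initial rates were taken from the absorbance decrease at 340 nm at 30° C. Ki was fitted with a tight-binding model over 11 concentrations (top 100 μM); single-point inhibition was tested at 1 or 10 μM.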

T1 sequence (P45983 1-364): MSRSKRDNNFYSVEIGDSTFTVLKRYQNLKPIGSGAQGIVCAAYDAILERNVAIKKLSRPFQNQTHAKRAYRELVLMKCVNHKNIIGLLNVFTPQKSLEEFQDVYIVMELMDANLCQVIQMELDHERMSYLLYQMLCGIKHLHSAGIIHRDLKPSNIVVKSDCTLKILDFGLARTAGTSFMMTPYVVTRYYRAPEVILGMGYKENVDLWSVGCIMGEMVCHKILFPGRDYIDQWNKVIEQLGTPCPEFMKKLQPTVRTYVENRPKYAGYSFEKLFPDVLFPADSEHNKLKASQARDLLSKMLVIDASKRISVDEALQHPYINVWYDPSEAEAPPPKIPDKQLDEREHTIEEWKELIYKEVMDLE

**Q.** Which inhibition at 1 µM does the source give for `COc1ccc(COc2cccc3cnc(N[C@H]4CC[C@H](O)CC4)nc23)cc1OC` [Example 265, trans-4-({8-[(3,4-dimethoxybenzyl)oxy]quinazolin-2-yl}amino)cyclohexanol] here?
**A.** Its inhibition at 1 µM is 47%.

**Q.** `CC(COc1cccc2cnc(N[C@H]3CC[C@H](O)CC3)nc12)N(C)C` (stereo partly drawn) [Example 266, trans-4-({8-[2-(dimethylamino)propoxy]quinazolin-2-yl}amino)cyclohexanol] was tested. Which inhibition at 1 µM did it give?
**A.** Its inhibition at 1 µM is 14%.

**Q.** How did the inhibition at 1 µM turn out when `CC1CN(CCOc2cccc3cnc(N[C@H]4CC[C@H](O)CC4)nc23)CC(C)O1` (stereo partly drawn) [Example 267, trans-4-({8-[2-(2,6-dimethylmorpholin-4-yl)ethoxy]quinazolin-2-yl}amino)cyclohexanol] was run?
**A.** Its inhibition at 1 µM is 18%.

**Q.** Which inhibition at 1 µM does the source give for `O[C@H]1CC[C@H](Nc2ncc3ccc(OC4CCOCC4)cc3n2)CC1` [Example 268, trans-4-{[7-(tetrahydro-2H-pyran-4-yloxy)quinazolin-2-yl]amino}cyclohexanol] here?
**A.** The inhibition at 1 µM was 67%.

**Q.** For `CN(C)C(C)(C)COc1ccc2cnc(N[C@H]3CC[C@H](O)CC3)nc2c1` [Example 269, trans-4-({7-[2-(dimethylamino)-2-methylpropoxy]quinazolin-2-yl}amino)cyclohexanol], which inhibition at 1 µM is on record?
**A.** Its inhibition at 1 µM is 29%.

**Q.** Which inhibition at 1 µM does the source give for `CN1CCCC(COc2ccc3cnc(N[C@H]4CC[C@H](O)CC4)nc3c2)C1` (stereo partly drawn) [Example 270, trans-4-({7-[(1-methylpiperidin-3-yl)methoxy]quinazolin-2-yl}amino)cyclohexanol] here?
**A.** Its inhibition at 1 µM is 40%.

**Q.** Which inhibition at 1 µM does the source give for `CN1CCC(Oc2ccc3cnc(N[C@H]4CC[C@H](O)CC4)nc3c2)CC1` [Example 271, trans-4-({7-[(1-methylpiperidin-4-yl)oxy]quinazolin-2-yl}amino)cyclohexanol] here?
**A.** Its inhibition at 1 µM is 41%.

**Q.** For `COCCOc1ccc2cnc(N[C@H]3CC[C@H](O)CC3)nc2c1` [Example 272, trans-4-{[7-(2-methoxyethoxy)quinazolin-2-yl]amino)cyclohexanol], which inhibition at 1 µM is on record?
**A.** The inhibition at 1 µM was 63%.

**Q.** For `CN1CCC[C@H]1COc1ccc2cnc(N[C@H]3CC[C@H](O)CC3)nc2c1` [Example 273, trans-4-[(7-{[(2S)-1-methylpyrrolidin-2-yl]methoxy}quinazolin-2-yl)amino]cyclohexanol], which inhibition at 1 µM is on record?
**A.** Its inhibition at 1 µM is 24%.

**Q.** Which inhibition at 1 µM does the source give for `CC(CN1CCOCC1)Oc1ccc2cnc(N[C@H]3CC[C@H](O)CC3)nc2c1` (stereo partly drawn) [Example 274, trans-4-{[7-(1-methyl-2-morpholin-4-ylethoxy)quinazolin-2-yl]amino}cyclohexanol] here?
**A.** The inhibition at 1 µM was 25%.

**Q.** With `CCOCC(C)Oc1ccc2cnc(N[C@H]3CC[C@H](O)CC3)nc2c1` (stereo partly drawn) [Example 275, trans-4-{[7-(2-ethoxy-1-methylethoxy)quinazolin-2-yl]amino}cyclohexanol] as the molecule, how does the inhibition at 1 µM read?
**A.** Its inhibition at 1 µM is 52%.

**Q.** `O[C@H]1CC[C@H](Nc2ncc3ccc(OC[C@@H]4CCCN4Cc4ccccc4)cc3n2)CC1` [Example 276, trans-4-[(7-{[(2S)-1-benzylpyrrolidin-2-yl]methoxy}quinazolin-2-yl)amino]cyclohexanol] was tested. Which inhibition at 1 µM did it give?
**A.** The inhibition at 1 µM was 22%.

**Q.** `O[C@H]1CC[C@H](Nc2ncc3ccc(O[C@H]4CCN(Cc5ccccc5)C4)cc3n2)CC1` [Example 277, trans-4-[(7-{[(3S)-1-benzylpyrrolidin-3-yl]oxy}quinazolin-2-yl)amino]cyclohexanol] was tested. Which inhibition at 1 µM did it give?
**A.** The inhibition at 1 µM was 46%.

**Q.** `CCN1CCC(Oc2ccc3cnc(N[C@H]4CC[C@H](O)CC4)nc3c2)C1` (stereo partly drawn) [Example 278, trans-4-({7-[(1-ethylpyrrolidin-3-yl)oxy]quinazolin-2-yl}amino)cyclohexanol] was tested. Which inhibition at 1 µM did it give?
**A.** The inhibition at 1 µM was 27%.

**Q.** `O[C@H]1CC[C@H](Nc2ncc3ccc(OC4CCC(F)(F)CC4)cc3n2)CC1` [Example 279, trans-4-({7-[(4,4-difluorocyclohexyl)oxy]quinazolin-2-yl}amino)cyclohexanol] was tested. Which inhibition at 1 µM did it give?
**A.** The inhibition at 1 µM was 54%.

**Q.** Which inhibition at 1 µM does the source give for `O=C1CC[C@@H](COc2ccc3cnc(N[C@H]4CC[C@H](O)CC4)nc3c2)N1` [Example 280, (5S)-5-[({2-[(trans-4-hydroxycyclohexyl)amino]quinazolin-7-yl}oxy)methyl]pyrrolidin-2-one] here?
**A.** The inhibition at 1 µM was 37%.

**Q.** `CC1(COc2ccc3cnc(N[C@H]4CC[C@H](O)CC4)nc3c2)COC1` [Example 281, trans-4-({7-[(3-methyloxetan-3-yl)methoxy]quinazolin-2-yl}amino)cyclohexanol] was tested. Which inhibition at 1 µM did it give?
**A.** The inhibition at 1 µM was 72%.

**Q.** Which inhibition at 1 µM does the source give for `O=C1OCCN1CCOc1ccc2cnc(N[C@H]3CC[C@H](O)CC3)nc2c1` [Example 282, 3-[2-({2-[(trans-4-hydroxycyclohexyl)amino]quinazolin-7-yl}oxy)ethyl]-1,3-oxazolidin-2-one] here?
**A.** Its inhibition at 1 µM is 71%.

**Q.** With `O[C@H]1CC[C@H](Nc2ncc3ccc(OC[C@@H]4CCCN5CCCC[C@H]45)cc3n2)CC1` [Example 283, trans-4-({7-[(1R,9aR)-octahydro-2H-quinolizin-1-ylmethoxy]quinazolin-2-yl}amino)cyclohexanol] as the molecule, how does the inhibition at 1 µM read?
**A.** The inhibition at 1 µM was 33%.

**Q.** With `O=C1CC[C@H](COc2ccc3cnc(N[C@H]4CC[C@H](O)CC4)nc3c2)N1` [Example 284, (5R)-5-[({2-[(trans-4-hydroxycyclohexyl)amino]quinazolin-7-yl}oxy)methyl]pyrrolidin-2-one] as the molecule, how does the inhibition at 1 µM read?
**A.** Its inhibition at 1 µM is 53%.

**Q.** How did the inhibition at 1 µM turn out when `O[C@H]1CC[C@H](Nc2ncc3ccc(O[C@@H]4CCN(Cc5ccccc5)C4)cc3n2)CC1` [Example 285, trans-4-[(7-{[(3R)-1-benzylpyrrolidin-3-yl]oxy}quinazolin-2-yl)amino]cyclohexanol] was run?
**A.** Its inhibition at 1 µM is 29%.

**Q.** Which inhibition at 1 µM does the source give for `O[C@H]1CC[C@H](Nc2ncc3ccc(OC4CCCN(Cc5ccccn5)C4)cc3n2)CC1` (stereo partly drawn) [Example 286, trans-4-[(7-{[1-(pyridin-2-ylmethyl)piperidin-3-yl]oxy}quinazolin-2-yl)amino]cyclohexanol] here?
**A.** The inhibition at 1 µM was 42%.

**Q.** With `O=C1CN2C[C@@H](Oc3ccc4cnc(N[C@H]5CC[C@H](O)CC5)nc4c3)CC[C@H]2CN1` [Example 287, (7S,9aS)-7-({2-[(trans-4-hydroxycyclohexyl)amino]quinazolin-7-yl}oxy)hexahydro-2H-pyrido[1,2-a]pyrazin-3(4H)-one] as the molecule, how does the inhibition at 1 µM read?
**A.** The inhibition at 1 µM was 62%.

**Q.** `O[C@H]1CC[C@H](Nc2ncc3ccc(OCc4nc5ccccc5[nH]4)cc3n2)CC1` [Example 288, trans-4-{[7-(1H-benzimidazol-2-ylmethoxy)quinazolin-2-yl]amino}cyclohexanol] was tested. Which inhibition at 1 µM did it give?
**A.** The inhibition at 1 µM was 39%.

**Q.** How did the inhibition at 1 µM turn out when `CN1C(=O)OC[C@@H]1COc1ccc2cnc(N[C@H]3CC[C@H](O)CC3)nc2c1` [Example 289, 4-[({2-[(trans-4-hydroxycyclohexyl)amino]quinazolin-7-yl}oxy)methyl]-3-methyl-1,3-oxazolidin-2-one] was run?
**A.** Its inhibition at 1 µM is 69%.

**Q.** With `O[C@H]1CC[C@H](Nc2ncc3ccc(OCC(F)(F)c4ccccn4)cc3n2)CC1` [Example 290, trans-4-{[7-(2,2-difluoro-2-pyridin-2-ylethoxy)quinazolin-2-yl]amino}cyclohexanol] as the molecule, how does the inhibition at 1 µM read?
**A.** Its inhibition at 1 µM is 53%.

Same assay, conditions: @10 uM; read-out: % Inhibition JNK-1

**Q.** With `CN1CCC(Oc2cccc3cnc(N[C@H]4CC[C@H](O)CC4)nc23)C1` (stereo partly drawn) [Example 262, trans-4-({8-[(1-methylpyrrolidin-3-yl)oxy]quinazolin-2-yl}amino)cyclohexanol] as the molecule, how does the inhibition at 10 µM read?
**A.** The inhibition at 10 µM was 61%.

**Q.** Which inhibition at 10 µM does the source give for `O[C@H]1CC[C@H](Nc2ncc3cccc(OC[C@@H]4CCCN5CCCC[C@H]45)c3n2)CC1` [Example 263, trans-4-({8-[(1R, 9aR)-octahydro-2H-quinolizin-1-ylmethoxy]quinazolin-2-yl}amino)cyctohexanol] here?
**A.** The inhibition at 10 µM was 31%.

**Q.** With `CN1CCN(C)C(COc2cccc3cnc(N[C@H]4CC[C@H](O)CC4)nc23)C1` (stereo partly drawn) [Example 264, trans-4-({8-[(1,4-dimethylpiperazin-2-yl)methoxy]quinazolin-2-yl}amino)cyclohexanol] as the molecule, how does the inhibition at 10 µM read?
**A.** Its inhibition at 10 µM is 46%.
